Measured values as given in patent US20260273074A1, “FERRITIN-TARGETING PROTACS AND METHODS OF INDUCING PYROPTOSIS” (Wisconsin Alumni Research Foundation, priority 2023, published 2026).
Where a SMILES comes first, the peptide text is derived from it. The star is where a group is joined. Cbz = O=C(OCc1ccccc1)*; CH2F = FC*

Tests used:
B16F10 cells [1] = test: Cell viability evaluation by CCK-8 assay; conditions: B16F10 cells, DeFer-2 5 μM; DFOM 25 μM, Z-VAD 10 μM, NSCI 0.1 μM, VX-765 10 μM
Method: Cell viability evaluation: The cell viability of B16F10 cells treated with ferritin degraders with or without various inhibitors was evaluated by CCK-8 assay. Briefly, 5×10^3 cells were seeded in 96-well plates and cultured for 24 h for attachment. Then the medium in the corresponding wells, except the control, was replaced with 100 μL of medium containing the indicated degrader formulations with concentrations of 0.008, 0.04, 0.2, 1, and 5 μM. After incubation for 24 or 48 h, CCK-8 reagent was added and interacted with cells at 37° C. for 1 h. The absorbance was measured by a microplate reader (Infinite M Plex) at the detection wavelength of 450 nm.
For blocking assays with Z-VAD, NSCI, and VX-765, 5×10^3 cells were seeded in 96-well plates and cultured 24 h for attachment. Then the medium in the corresponding wells, except the control, was replaced with 100 μL of medium containing Z-VAD (10 μM), NSCI (0.1 μM), or VX-765 (10 μM). […] Following another 24-h incubation, CCK-8 reagents were added and interacted with cells at 37° C. for 1 h. The absorbance was measured by a microplate reader (Infinite® M Plex) at the detection wavelength of 450 nm. For blocking assays with DFOM, 5×10^3 cells were seeded in 96-well plates and cultured 24 h for attachment. […] Following another 20-h incubation, CCK-8 reagents were added and interacted with cells at 37° C. for 1 h. The absorbance was measured by a microplate reader (Infinite® M Plex) at the detection wavelength of 450 nm.

B16F10 cells [2] = test: LDH release assay; format: cell-based, murine; conditions: inhibitor pretreatment 4 h, DeFer-2 5 μM, NSCI 0.1 μM, VX-765 10 μM
Method: After incubation for 24 h, the cell samples were used to measure LDH release according to the manufacturer's instructions of CytoScan™ LDH Cytotoxicity Assay kit from G-Biosciences (St. Louis, MO, USA).
Following another 24-h incubation, the cell samples were used to measure LDH release according to the manufacturer's instructions of CytoScan™ LDH Cytotoxicity Assay kit from G-Biosciences (St. Louis, MO, USA).

[3] = molecular target: T1, apoferritin from equine spleen (Equus caballus, UniProt P02791); test: Isothermal titration calorimetry (ITC) binding to ferritin
T1 construct: the apoferritin from equine spleen (A3660, Sigma-Aldrich) that is not combined with iron was used; purchased Sigma-Aldrich A3660; host or cells: equine spleen (tissue-derived)
T1 sequence (P02791 2-175 limits assumed): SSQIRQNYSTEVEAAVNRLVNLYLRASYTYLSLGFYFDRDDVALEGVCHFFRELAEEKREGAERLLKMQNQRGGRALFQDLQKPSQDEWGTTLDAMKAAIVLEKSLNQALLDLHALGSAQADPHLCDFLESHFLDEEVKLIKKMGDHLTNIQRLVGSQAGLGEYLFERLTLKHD
Method: As for the ferritin proteins, the apoferritin from equine spleen (A3660, Sigma-Aldrich) that is not combined with iron was used. Before the ITC test, 1 mL of apoferritin in glycerol solution (50% glycerol and 0.075 M NaCl) was placed in a dialysis bag with a molecular weight cut-off of 3 kDa. The dialysis bags were then immersed in the prepared solution (20 mM Tris-HCl, pH 8.5, and 130 mM NaCl) and stirred at room temperature. The dialysis buffer was changed every 24 h for three times, and the last buffer was collected and 0.05% DMSO was added to serve as the ITC buffer. As for the oleic acid, 12 μM apoferritin in the ITC buffer was placed in the ITC cell, and the syringe was full of 250 μM oleic acid in the same ITC buffer. Besides the first injection with 5 μL of the oleic acid solution, 18 aliquots with 10 μL of the oleic acid solution were titrated into the apoferritin solution with a time interval of 300 s. […] Besides the first injection with 1 μL of the apoferritin solution, 25 aliquots were titrated with a time interval of 300 s. Raw data were corrected for control titrations (the solution in the syringe into the blank ITC buffer in the cell) and integrated using Origin 7.0 (MicroCal). Binding kinetics parameters, including N, Kd, ΔH, and ΔS, were calculated using a single-class binding site model.

GSDME-N = test: Western blot of cleaved N-terminal GSDME (GSDME-N) in B16F10 cells; format: cell-based, murine; conditions: GSH pretreatment 4 h
Method: (§1) As for the determination of cleaved-GSDME and cleaved-caspase-3, B16F10 cells were seeded in 6-well culture plates (2×10^5 cells per well) and cultured for 24 h. Then the medium in the corresponding wells except the negative control was replaced with 1 mL of medium containing ferritin degraders, albumin nanoparticles, or the degrader with inhibitors at the indicated concentrations. Incubation for another 6 or 8 h was used to test the cleaved-caspase-3, while treatment for another 16 or 20 h was used to test cleaved-GSDME. The following procedures were the same as mentioned above.

cleaved caspase 3 = test: Western blot of cleaved caspase 3 in B16F10 cells; format: cell-based, murine; conditions: GSH pretreatment 4 h
Method: as §1

ferritin (Mus musculus) = system: T2, ferritin (Mus musculus); test: Western blot of ferritin expression (ferritin degradation) in B16F10 cells; format: cell-based, murine; conditions: Epox 1 μM pretreatment 1 h; for effect on DeFer-2-mediated ferritin degradation: DeFer-2 0.5 μM 12 h, VHL ligand 50 μM in excess
T2 construct: ferritin expression levels in B16F10 cells were evaluated; endogenous in cells; host or cells: B16F10 (murine melanoma)
Method: Western blot analysis: After various treatments, ferritin expression levels in B16F10 cells were evaluated to investigate the DeFer-2-mediated ferritin degradation. Briefly, B16F10 cells were seeded in 6-well culture plates (5×10^4 cells per well) and cultured for 24 h. Then the medium in the corresponding wells except the negative control was replaced with 1 mL of medium containing ferritin degraders, albumin nanoparticles, the epimer formulations, the combination of VHL ligand and oleic acid, or the combination of the degrader and VHL ligand at the indicated concentrations. […] The lysates were centrifuged at 12,000 rpm for 10 min at 4° C., followed by quantification of the total proteins in the supernatant through the bicinchoninic acid assay (BCA) assay. Afterward, the proteins in the supernatant were mixed with the loading buffer and heated at 95° C. for 15 min. Equal amounts of proteins from different samples were loaded into 15% SDS-polyacrylamide gel (20 μg protein per lane) to separate target proteins. After separation, proteins were transferred to polyvinylidene fluoride (PVDF) membranes before the membranes were blocked with 5% nonfat milk in PBST. Then proteins were incubated with primary antibodies overnight at 4° C., followed by the incubation with the goat-anti-rabbit IgG H&L (HRP) secondary antibodies at room temperature for 2 h. Finally, the bands were detected with electrochemiluminescence (ECL) western blot substrate for imaging, and ImageJ software was used for quantification.

In the case of `CCO[C@@H]1OC(=O)C[C@@H]1NC(=O)[C@@H]1CCCN1C(=O)[C@@H](NC(=O)c1ccc(N)c(Cl)c1)C(C)(C)C` [VX-765, reference compound], the “effect on DeFer-2-induced cytotoxicity / cell death” value (B16F10 cells [1]) is reported as “remained unchanged” and the “effect on LDH release caused by DeFer-2” value (B16F10 cells [2]) is reported as “barely affected”.
In the case of `COC(=O)C[C@H](NC(=O)[C@H](C)NC(=O)[C@@H](NC(=O)OCc1ccccc1)C(C)C)C(=O)CF` [Z-VAD, Z-VAD(OMe)-FMK, reference compound] (Cbz-Val-Ala-Asp(OMe)-CH2F), the “effect on DeFer-2-induced cytotoxicity / cell death” value (B16F10 cells [1]) is reported as “compromised”.
Compound `CCCCCCCC/C=C\CCCCCCCC(=O)O` [OA, oleic acid, reference compound] has a Kd [3] of 12.8 ± 2.89 µM.
In the case of `N[C@@H](CCC(=O)N[C@@H](CS)C(=O)NCC(=O)O)C(=O)O` [GSH, glutathione, reference compound], the “effect of pretreatment on DeFer-2-caused GSDME-N generation” value (GSDME-N) is reported as “compromised by GSH pretreatment” and the “effect of pretreatment on DeFer-2-caused caspase 3 activation” value (cleaved caspase 3) is reported as “substantially reduced activated caspase 3”.
With `CC[C@H](C)[C@H](NC(=O)[C@H]([C@@H](C)CC)N(C)C(C)=O)C(=O)N[C@H](C(=O)N[C@@H](CC(C)C)C(=O)[C@@]1(C)CO1)[C@@H](C)O` [Epox, epoxomicin, reference compound] the “effect on aDeFer-2-mediated ferritin degradation” value (ferritin (Mus musculus); B16F10 cells, 0.5 μM, 12 h) was “compromised the aDeFer-2-mediated ferritin degradation” and the “effect on DeFer-2-mediated ferritin degradation” value (ferritin (Mus musculus)) was “inhibited”.
In the case of `Cc1ncsc1-c1ccc(CNC(=O)[C@@H]2C[C@@H](O)CN2C(=O)[C@@H](N)C(C)(C)C)cc1.Cl` [VHL ligand, (2S,4R)-1-((S)-2-amino-3,3-dimethylbutanoyl)-4-hydroxy-N-(4-(4-methylthiazol-5-yl)benzyl) pyrrolidine-2-carboxamide hydrochloride, reference compound], the “effect on DeFer-2-mediated ferritin degradation” value (ferritin (Mus musculus)) is reported as “compromised”.
